Experimental data as given in ChEMBL document CHEMBL1201862, “PubChem BioAssay data set” (2004).
Activity calls are given as the source filed them.

What was measured:
[1] = molecular target: T1, Nuclear receptor subfamily 0 group B member 1 (Homo sapiens, UniProt P51843); experiment: Luminescence-based cell-based high throughput dose response assay for inhibitors of the orphan nuclear receptor subfamily 0, group B, member 1 (DAX1; NR0B1). [Related pubchem assays (depositor defined):AID504766, AID504790]; type: functional
T1 sequence (P51843 whole entry): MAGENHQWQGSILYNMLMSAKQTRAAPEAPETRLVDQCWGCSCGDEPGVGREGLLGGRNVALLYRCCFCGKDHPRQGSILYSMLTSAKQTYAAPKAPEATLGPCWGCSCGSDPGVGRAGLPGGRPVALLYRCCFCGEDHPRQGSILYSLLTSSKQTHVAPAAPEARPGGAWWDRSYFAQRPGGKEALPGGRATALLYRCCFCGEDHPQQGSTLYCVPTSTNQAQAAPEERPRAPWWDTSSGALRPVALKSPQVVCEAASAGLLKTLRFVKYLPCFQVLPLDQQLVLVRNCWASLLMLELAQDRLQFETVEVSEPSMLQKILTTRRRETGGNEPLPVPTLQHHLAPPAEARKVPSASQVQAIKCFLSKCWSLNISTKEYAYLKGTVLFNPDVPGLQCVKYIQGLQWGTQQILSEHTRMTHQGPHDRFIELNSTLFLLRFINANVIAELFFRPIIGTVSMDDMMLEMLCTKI

[2] = system: HEK293; experiment: cells; type: functional, cell-based; conditions: Homo sapiens
[3] = molecular target: Voltage-gated inwardly rectifying potassium channel KCNH2 (Homo sapiens, UniProt Q12809); conditions: Potency;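 further: confirmatory quantitative high-throughput screen measuring inhibition of hERG channel activity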
[4] = system: BJ; experiment: cells; type: functional, cell-based; conditions: Homo sapiens
[5] = NIH3T3 cell viability loss – ATP luminescence, mouse fibroblasts, counter-screen, dose response (AID 2010); type: functional, cell-based;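 further: cells exposed to compound for about 90 hours before reading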
[6] = system: BJ; experiment: BJ-TERT-LT-ST fibroblast viability loss – cell-based, RAS-independent, luminescence, dose response (AID 1935); type: functional; conditions: Homo sapiens;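 further: BJ fibroblasts immortalized with TERT plus LT and ST oncogenes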
[7] = DRD fibroblast viability loss – cell-based, non-viral oncogenic, luminescence, dose response (AID 1934); type: functional; conditions: Homo sapiens
[8] = molecular target: T2, Rac GTPase-activating protein 1 (Homo sapiens, UniProt Q9H0H5); experiment: blockers of MgcRacGAP-driven Rac1 GTP hydrolysis – biochemical, ADP Hunter fluorescence, primary and confirmatory, confirmation (AID 624330); type: functional
T2 sequence (Q9H0H5 whole entry): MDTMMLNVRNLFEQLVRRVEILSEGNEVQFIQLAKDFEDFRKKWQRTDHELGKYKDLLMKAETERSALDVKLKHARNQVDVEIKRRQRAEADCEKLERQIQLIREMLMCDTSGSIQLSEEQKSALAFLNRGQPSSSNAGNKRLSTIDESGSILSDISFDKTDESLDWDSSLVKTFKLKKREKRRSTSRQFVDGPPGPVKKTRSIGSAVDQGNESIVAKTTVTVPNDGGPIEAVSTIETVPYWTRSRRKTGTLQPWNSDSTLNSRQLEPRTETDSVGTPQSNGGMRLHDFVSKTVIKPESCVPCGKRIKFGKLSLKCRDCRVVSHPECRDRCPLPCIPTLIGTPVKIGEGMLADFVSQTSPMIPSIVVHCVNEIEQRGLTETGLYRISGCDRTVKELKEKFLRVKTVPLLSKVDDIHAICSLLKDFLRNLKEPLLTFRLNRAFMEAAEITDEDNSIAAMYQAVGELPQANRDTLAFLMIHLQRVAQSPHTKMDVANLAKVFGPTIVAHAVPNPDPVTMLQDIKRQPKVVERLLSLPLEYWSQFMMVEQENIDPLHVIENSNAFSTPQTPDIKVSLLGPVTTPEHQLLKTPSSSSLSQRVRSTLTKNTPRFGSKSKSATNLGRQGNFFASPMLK

[9] = system: BJ; experiment: BJ-TERT fibroblast viability loss – cell-based, RAS-independent, luminescence, dose response (AID 1933); type: functional; conditions: Homo sapiens
[10] = Luminescent dose response cell-based high throughput screening assay for inhibitors of the Janus kinase 2 mutant JAK2V617F. [Related pubchem assays: 1446 (Primary screen.), 1521 (Confirmation assay.), 1486 (Counter screen.)]; type: functional
[11] = system: HEK293; experiment: cells; conditions: Homo sapiens
[12] = molecular target: T3, DNA repair protein RAD52 homolog (Homo sapiens, UniProt P43351); type: functional, biochemical
T3 sequence (P43351 whole entry): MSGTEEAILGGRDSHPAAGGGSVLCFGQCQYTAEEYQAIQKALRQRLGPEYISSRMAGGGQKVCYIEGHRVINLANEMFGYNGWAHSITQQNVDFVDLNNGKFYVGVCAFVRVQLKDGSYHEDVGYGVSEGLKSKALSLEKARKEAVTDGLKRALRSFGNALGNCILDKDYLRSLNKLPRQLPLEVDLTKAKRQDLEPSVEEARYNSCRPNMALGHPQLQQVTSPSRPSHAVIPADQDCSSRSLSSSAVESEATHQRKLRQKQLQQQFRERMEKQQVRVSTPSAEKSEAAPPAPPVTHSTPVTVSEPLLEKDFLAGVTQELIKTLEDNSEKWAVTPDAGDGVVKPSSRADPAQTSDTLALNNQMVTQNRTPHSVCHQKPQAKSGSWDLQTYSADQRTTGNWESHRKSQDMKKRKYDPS

[13] = viability loss in HeLa cells – cytotoxicity control for MgcRacGAP inhibitor project, dose response (AID 624300); type: functional
[14] = microbe, parasite or virus in culture; type: functional; conditions: Mycobacterium tuberculosis
[15] = system: HEK293; experiment: cells; conditions: Homo sapiens; remark: listed apart in the source
[16] = Trypanosoma cruzi growth suppression in host cells – NIH3T3 host cells, beta-gal luminescence, confirmation (AID 2044); type: functional, cell-based;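 further: intracellular parasites grown in NIH/3T3 mouse fibroblasts as host cells; luminescent beta-galactosidase reporter signal from transgenic T. cruzi replicating inside host cells; inhibitors lower the luminescence signal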
[17] = molecular target: T4, Hexokinase-1 (Homo sapiens, UniProt P19367); experiment: SAR analysis of small molecule inhibitors of hexokinase domain containing I (HKDC1) in the hexokinase 1 selectivity assay. [Related pubchem assays (depositor defined):AID493160, AID493190]; type: functional
T4 sequence (P19367 whole entry): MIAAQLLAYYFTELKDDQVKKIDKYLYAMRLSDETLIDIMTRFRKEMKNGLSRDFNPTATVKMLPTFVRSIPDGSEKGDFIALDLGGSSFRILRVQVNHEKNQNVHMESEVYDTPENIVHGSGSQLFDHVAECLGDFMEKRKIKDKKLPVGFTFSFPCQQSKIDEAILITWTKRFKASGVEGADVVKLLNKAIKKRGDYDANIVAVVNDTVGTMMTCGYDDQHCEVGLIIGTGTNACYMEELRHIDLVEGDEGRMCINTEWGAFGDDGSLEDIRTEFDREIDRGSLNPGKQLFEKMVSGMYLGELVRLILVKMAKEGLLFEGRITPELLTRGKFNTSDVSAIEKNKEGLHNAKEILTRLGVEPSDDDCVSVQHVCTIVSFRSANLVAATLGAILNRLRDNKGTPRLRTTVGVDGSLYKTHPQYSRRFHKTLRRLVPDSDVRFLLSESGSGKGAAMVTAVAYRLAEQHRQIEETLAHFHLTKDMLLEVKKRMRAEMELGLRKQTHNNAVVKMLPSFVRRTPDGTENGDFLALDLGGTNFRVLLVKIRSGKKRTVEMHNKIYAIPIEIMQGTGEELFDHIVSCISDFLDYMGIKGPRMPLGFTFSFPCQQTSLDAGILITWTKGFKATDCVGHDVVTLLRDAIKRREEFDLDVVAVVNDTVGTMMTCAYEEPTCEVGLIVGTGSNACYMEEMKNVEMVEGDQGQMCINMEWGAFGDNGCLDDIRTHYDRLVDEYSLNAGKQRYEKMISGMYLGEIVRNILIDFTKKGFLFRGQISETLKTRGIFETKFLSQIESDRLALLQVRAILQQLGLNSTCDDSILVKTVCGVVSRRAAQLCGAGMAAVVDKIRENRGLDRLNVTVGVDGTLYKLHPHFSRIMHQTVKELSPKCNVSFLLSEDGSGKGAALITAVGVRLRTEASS

[18] = molecular target: T5, Hexokinase HKDC1 (Homo sapiens, UniProt Q2TB90); experiment: SAR analysis of small molecule inhibitors of hexokinase domain containing I (HKDC1). [Related pubchem assays (depositor defined):AID493160, AID493190]; type: functional
T5 sequence (Q2TB90 whole entry): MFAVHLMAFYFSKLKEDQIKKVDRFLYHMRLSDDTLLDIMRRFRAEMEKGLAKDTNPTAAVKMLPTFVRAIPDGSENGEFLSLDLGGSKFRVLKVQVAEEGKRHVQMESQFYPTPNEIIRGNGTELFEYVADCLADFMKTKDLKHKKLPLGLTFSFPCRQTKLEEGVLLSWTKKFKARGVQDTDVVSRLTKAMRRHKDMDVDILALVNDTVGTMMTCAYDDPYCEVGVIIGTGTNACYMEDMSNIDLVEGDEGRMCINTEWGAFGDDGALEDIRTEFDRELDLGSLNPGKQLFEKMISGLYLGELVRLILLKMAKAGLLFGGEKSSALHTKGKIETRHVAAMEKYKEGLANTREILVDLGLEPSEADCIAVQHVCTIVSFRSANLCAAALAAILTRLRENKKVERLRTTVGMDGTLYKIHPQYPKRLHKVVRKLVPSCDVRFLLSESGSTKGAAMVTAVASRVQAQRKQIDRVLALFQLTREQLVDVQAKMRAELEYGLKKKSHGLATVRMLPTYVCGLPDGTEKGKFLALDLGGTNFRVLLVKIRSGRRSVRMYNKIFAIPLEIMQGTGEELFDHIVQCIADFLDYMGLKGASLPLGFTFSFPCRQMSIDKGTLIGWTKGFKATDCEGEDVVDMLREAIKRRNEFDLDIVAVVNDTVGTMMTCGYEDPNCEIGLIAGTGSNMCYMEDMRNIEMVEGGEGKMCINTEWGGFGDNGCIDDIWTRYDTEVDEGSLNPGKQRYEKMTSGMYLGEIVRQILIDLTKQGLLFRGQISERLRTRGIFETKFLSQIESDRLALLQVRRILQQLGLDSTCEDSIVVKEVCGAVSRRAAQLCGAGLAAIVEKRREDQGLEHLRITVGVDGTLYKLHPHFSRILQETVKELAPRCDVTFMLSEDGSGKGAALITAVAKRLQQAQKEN

[19] = molecular target: Glycogen synthase kinase-3 beta (Homo sapiens, UniProt P49841); experiment: Inhibition of Human GSK-3 beta Activity Measured in Biochemical System Using Microfluidics - 2063-05_Inhibitor_Dose_DryPowder_Activity. [Related pubchem assays (depositor defined):AID2709]
[20] = molecular target: Glycogen synthase kinase-3 alpha (Homo sapiens, UniProt P49840); experiment: Inhibition of Human GSK-3 alpha Activity Measured in Biochemical System Using Microfluidics - 2063-06_Inhibitor_Dose_DryPowder_Activity. [Related pubchem assays (depositor defined):AID2709]
[21] = molecular target: T5, Hexokinase HKDC1; experiment: analog inhibition of human HKDC1 activity – biochemical, set 2, SAR follow-up (AID 588355); type: functional
[22] = molecular target: T4, Hexokinase-1; experiment: hexokinase 1 activity inhibitors, potency – biochemical, set 2, resazurin fluorescence coupled readout, selectivity assay for HKDC1 inhibitor project, SAR follow-up (AID 588356); type: functional
[23] = system: Streptococcus; experiment: GAS UMAA2166 growth inhibition – luminescence, BacTiterGlo, counter-screen for streptokinase expression inhibitor project, dose response (AID 1915); type: functional, organism-based;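 further: potency for reduction of bacterial viability or growth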
[24] = system: Streptococcus sp. 'group A'; experiment: Streptococcus pyogenes SK(-)GAS viability under kanamycin – luminescence, BacTiterGlo, confirmation, counter-screen for streptokinase expression inhibitor project, dose response (AID 1900); type: functional, organism-based
[25] = system: Escherichia coli; experiment: microbe, parasite or virus in culture

Sequence of Glycogen synthase kinase-3 beta (P49841 whole entry): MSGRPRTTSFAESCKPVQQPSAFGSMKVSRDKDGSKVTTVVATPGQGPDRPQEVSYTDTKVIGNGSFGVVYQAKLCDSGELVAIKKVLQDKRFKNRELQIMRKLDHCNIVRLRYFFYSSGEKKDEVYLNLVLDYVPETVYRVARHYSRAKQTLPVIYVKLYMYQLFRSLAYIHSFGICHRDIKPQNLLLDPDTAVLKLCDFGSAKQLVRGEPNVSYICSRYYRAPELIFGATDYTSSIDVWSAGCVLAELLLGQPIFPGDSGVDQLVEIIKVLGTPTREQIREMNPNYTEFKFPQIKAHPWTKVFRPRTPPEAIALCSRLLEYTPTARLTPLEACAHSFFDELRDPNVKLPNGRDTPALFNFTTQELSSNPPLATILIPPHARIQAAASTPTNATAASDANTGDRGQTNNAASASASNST
Sequence of Voltage-gated inwardly rectifying potassium channel KCNH2 (Q12809 whole entry): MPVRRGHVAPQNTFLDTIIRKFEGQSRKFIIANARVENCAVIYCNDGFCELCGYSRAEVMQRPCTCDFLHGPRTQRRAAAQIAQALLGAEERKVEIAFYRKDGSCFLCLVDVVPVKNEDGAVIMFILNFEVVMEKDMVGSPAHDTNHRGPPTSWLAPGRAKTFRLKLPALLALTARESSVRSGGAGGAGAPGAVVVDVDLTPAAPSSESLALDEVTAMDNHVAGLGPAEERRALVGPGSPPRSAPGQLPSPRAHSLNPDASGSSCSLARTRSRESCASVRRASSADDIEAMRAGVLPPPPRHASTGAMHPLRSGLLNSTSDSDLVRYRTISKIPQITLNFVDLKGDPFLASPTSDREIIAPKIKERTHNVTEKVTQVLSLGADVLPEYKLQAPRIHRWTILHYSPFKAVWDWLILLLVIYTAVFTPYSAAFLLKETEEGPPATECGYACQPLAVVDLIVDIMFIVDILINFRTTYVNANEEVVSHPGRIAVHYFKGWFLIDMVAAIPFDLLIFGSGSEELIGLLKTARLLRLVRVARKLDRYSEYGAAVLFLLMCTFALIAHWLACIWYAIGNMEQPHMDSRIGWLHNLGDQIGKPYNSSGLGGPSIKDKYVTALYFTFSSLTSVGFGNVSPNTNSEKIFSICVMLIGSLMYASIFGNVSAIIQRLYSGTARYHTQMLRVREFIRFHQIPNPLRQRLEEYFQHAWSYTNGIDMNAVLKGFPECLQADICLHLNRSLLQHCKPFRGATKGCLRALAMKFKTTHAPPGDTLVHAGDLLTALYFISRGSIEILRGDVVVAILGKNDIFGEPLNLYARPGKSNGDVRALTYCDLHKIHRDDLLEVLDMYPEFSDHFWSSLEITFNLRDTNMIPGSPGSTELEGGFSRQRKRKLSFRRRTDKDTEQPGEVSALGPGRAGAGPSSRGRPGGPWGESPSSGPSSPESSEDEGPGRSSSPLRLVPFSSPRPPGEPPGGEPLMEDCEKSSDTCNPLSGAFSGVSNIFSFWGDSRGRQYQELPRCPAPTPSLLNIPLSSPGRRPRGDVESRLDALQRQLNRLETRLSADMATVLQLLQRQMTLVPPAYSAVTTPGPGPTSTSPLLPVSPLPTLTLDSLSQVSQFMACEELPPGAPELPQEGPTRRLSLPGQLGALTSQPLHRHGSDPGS
Sequence of Glycogen synthase kinase-3 alpha (P49840 whole entry): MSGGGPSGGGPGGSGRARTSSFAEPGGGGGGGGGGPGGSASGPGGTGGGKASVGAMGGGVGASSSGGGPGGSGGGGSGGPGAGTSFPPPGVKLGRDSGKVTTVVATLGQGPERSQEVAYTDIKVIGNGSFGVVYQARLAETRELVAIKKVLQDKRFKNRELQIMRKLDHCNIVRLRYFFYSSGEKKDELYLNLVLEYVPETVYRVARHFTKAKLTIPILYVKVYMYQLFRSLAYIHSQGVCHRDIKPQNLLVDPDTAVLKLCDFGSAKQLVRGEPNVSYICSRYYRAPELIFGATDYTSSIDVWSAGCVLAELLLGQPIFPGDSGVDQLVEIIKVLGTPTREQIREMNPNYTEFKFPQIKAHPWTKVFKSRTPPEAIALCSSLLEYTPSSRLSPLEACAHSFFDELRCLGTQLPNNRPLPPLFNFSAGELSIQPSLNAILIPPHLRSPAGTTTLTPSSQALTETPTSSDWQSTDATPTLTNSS

Structure (SMILES): Cc1cc([N+](=O)[O-])nn1CCCC(=O)NC1CCCCC1
- IC50 [1]: > 67.5 µM (inactive)
- IC50 [2]: > 67.5 µM (inactive)

Structure (SMILES): CCCCCC/C(C=O)=C\c1ccccc1
- AC50 [3]: 50.1 nM (inconclusive)

Structure (SMILES): Cc1cc2[nH]c3c(c[n+](C)c4ccccc34)c2cc1C
- EC50 [4]: 5.11 µM (inconclusive)
- EC50 [5]: 6.13 µM (active)
- EC50 [6]: 5.36 µM (inconclusive)
- EC50 [7]: 5.3 µM (active)
- IC50 [8]: 36.2 µM (active)
- EC50 [9]: 3.9 µM (active)
- IC50 [10]: 639 nM (active)
- EC50 [11]: > 59.7 µM (inactive)
- AC50 [12]: 372 nM (active)
- CC50 [13]: 11.8 µM (active)
- CC50 [14]: 2.06 µM (active)
- EC50 [15]: > 59.7 µM (inactive)
- EC50 [16]: 680 nM (active)

Structure (SMILES): COc1cc2c(cc1OC)-c1cc(NCc3cccnc3)nc(=O)n1CC2
- IC50 [17]: > 80 µM (inactive)
- IC50 [18]: > 80 µM (inactive)

Structure (SMILES): CCCCOC(=O)C1C(C)=Nc2ncnn2C1c1cccc(OC)c1OC (stereo not given)
- AC50 [19]: 538 nM (active)
- AC50 [20]: 989 nM (active)

Structure (SMILES): CC(=O)NC1C(=O)N(Cc2ccccc2)c2ccc(C)cc21 (stereo not given)
- IC50 [21]: > 80 µM (inactive)
- IC50 [22]: > 80 µM (inactive)

Structure (SMILES): CCN1CCN(c2cc3c(cc2F)c(=O)c(C(=O)O)cn3C2CC2)CC1 [ENROFLOXACIN]
- EC50 [23]: 1.04 µM (active)
- EC50 [24]: 1.22 µM (active)
- AC50 [25]: 2.46 µM (active)
